In BindingDB's records for patent US20250011311 (Astrazeneca, 2025):

Target: T1, 17-beta-hydroxysteroid dehydrogenase 13 (Homo sapiens, UniProt Q7Z5P4)
T1 sequence (Q7Z5P4 whole entry): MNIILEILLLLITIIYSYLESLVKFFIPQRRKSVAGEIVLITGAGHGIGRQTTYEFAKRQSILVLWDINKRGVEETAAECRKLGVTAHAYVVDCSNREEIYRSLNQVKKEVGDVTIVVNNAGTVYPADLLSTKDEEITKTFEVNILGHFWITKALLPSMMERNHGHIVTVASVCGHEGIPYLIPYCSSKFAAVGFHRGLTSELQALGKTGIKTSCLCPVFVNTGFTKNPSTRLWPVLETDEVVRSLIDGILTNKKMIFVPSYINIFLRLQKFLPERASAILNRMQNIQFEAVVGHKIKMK
Experiment: In Vitro 17bHSD13 Enzyme Assay
Protocol: Final assay conditions were 80 nM of 17bHSD13, 0.5 mM of NAD, 20 μM Estradiol and various concentrations of compound in buffer (5 mM EDTA (TEKNOVA E0306), 0.01% DDM (AFFYMETRIX D310) in 50 mM Tris-Cl, pH 7.4). After 2.5 h the reaction were stopped by addition of 20 μl of 0.6% Formic acid (MERCK 5.33002) and samples were analyzed using LC-MS/MS.SCIEX LC-MS/MS system: Sample was injected with CTC analytical injector, SHIMATZU LC pumps LC20 and analyzed on the SCIEX API 5000 LCMSMS system with the following settings. Samples were chromatographed on a WATERS, […], C8, 3.5 μm, 2.1×50 mm) column at constant flow rate of 0.5 mL/min. The mobile phases consist of A (water with 0.2% formic acid) and B (acetonitrile with 0.2% formic acid). The LC gradient profile is as follows: 50% B during 0 to 0.5 min, a linear increase to 100% B during 0.5 to 1 min, hold at 100% B during 1 to 1.6 min then back to 50% B from 1.6 to 2 min. The run time was 2 min with retention times of approximately 0.8 and 1.07 min for Estradiol and Estrone, respectively. Detection was performed on a API 5000 LC/MS/MS system with a triple quadrupole mass spectrometer, a TURBO V ion source, in multiple reaction monitoring (MRM) mode at positive polarity with APCI probe. The MRM pairs were m/z 273.1 to m/z 107.0 and m/z 271.3 to 107.0. for Estradiol and Estrone, respectively.

- IC50: 151 nM
Compound: CN(C(=O)c1noc(-c2cc(F)c(F)c(O)c2F)n1)c1cccc(C#N)c1 [US20250011311, Example 63]
